For series [1] the following is noted: background, literature and labels; cited from earlier work.
A further series addresses T1, Human plasma kallikrein (Homo sapiens, UniProt P03952).
T1 construct: purchased Protogen
Briefly: Plasma kallikrein inhibitory activity in vitro, purified enzyme, fluorogenic substrate. Format: biochemical. As to conditions: 25° C., substrate H-DPro-Phe-Arg-AFC. On the procedure:
Human plasma kallikrein (Protogen) was incubated at 25° C. with the fluorogenic substrate H-DPro-Phe-Arg-AFC and various concentrations of the test compound. Residual enzyme activity (initial rate of reaction) was determined by measuring the change in […] at 410 nm and the IC50 value for the test compound was determined.

Series [2] has as its target PKa in DXS-activated plasma (Homo sapiens, UniProt P03952). Put plainly: Catalytic activity of PKa in dextran sulfate-activated plasma. Format: biochemical. As to conditions: read-out: IC50 plasma enzyme. On the procedure:
Catalytic activity of PKa in dextran sulfate-activated (DXS, Sigma; 10 μg/ml) plasma (1:4 diluted or undiluted, VisuCon-F control plasma, Affinity Biologicals Inc) was determined by the time-dependent hydrolysis of fluorogenic substrate.

In another series the target is purified PKa (Homo sapiens, UniProt P03952). Briefly: Rate of formation of the enzyme-inhibitor complex (Kon). In kind it is biochemical. The procedure: The rate of formation of the enzyme-inhibitor complex (Kon) was determined using purified PKa rapidly mixed with a solution containing fluorogenic substrate and a concentration range of inhibitor. The time-dependent establishment of inhibition was then used to calculate the rate of formation of the enzyme-inhibitor complex for each concentration of inhibitor. The Kon was calculated by plotting the rate of inhibition versus the inhibitor concentration. Data in Table 1 are presented in μM^−1 sec^−1.

Series [3] addresses T2, plasma kallikrein-kinin pathway enzyme activity in pre-activated plasma (Homo sapiens, UniProt P03952).
T2 construct: from tissue
Briefly: Inhibition of enzyme activity of pre-activated undiluted plasma (compound added after DXS). In kind it is biochemical. As to conditions: added 3.5 minutes post DXS; compound 300, 1000, 3000 nM; C1-INH 3000 nM. On the procedure: The ability of the compound to inhibit the enzyme activity of pre-activated plasma was assessed by addition of the compound after DXS stimulation. Aliquots of plasma (20 μL) were mixed with a 2.5 μL solution containing […] fluorogenic substrate (H-DPro-Phe-Arg-AFC) and a 2.5 μL solution of dextran sulphate (DXS; 100 μg/mL) which acted as an activator of the plasma kallikrein-kinin pathway. Enzyme activity was immediately measured by monitoring the accumulation of fluorescence liberated from the substrate by substrate cleavage over 16 minutes. At 3.5 minutes post DXS addition 5 μl of inhibitors or water control are were added into each well. The compound was tested at concentrations of 300, 1000 and 3000 nM. C1-INH at a concentration of 3000 nM and vehicle controls were also included.

The nature of series [4]: Phase 1 SAD: plasma pharmacokinetics (LC MS/MS). Format: in vivo, human. On the procedure: Samples for pharmacokinetic (PK) and PD assessment were taken at repeated intervals over 48 hours.
Plasma samples used for PK assessment were analysed using a validated liquid chromatography tandem mass spectrometry (LC MS/MS) method.

Series [5] relates to HK cleavage in undiluted plasma. Put plainly: DXS-activated cleavage of HK in undiluted plasma (immunoblot). In kind it is biochemical, human. As to conditions: 300 nM PKa inhibitor, 20 min incubation with DXS. The procedure:
DXS-activated cleavage of HK in undiluted plasma was performed in the absence or presence of 300 nM PKa inhibitor and quantified by SDS-PAGE gel electrophoresis, using 7.5% Criterion TGX Precast gels (Biorad). Transfer was made onto Immunobilon-FL PVDF membrane. Image analysis was done using the LICOR imaging system. Mouse monoclonal anti-HK antibody (MAB15692, R&D systems) was used for traditional immunoblotting. Data presented as % of HK remaining after 20 min incubation with DXS compared to HK levels in unactivated plasma (Table 1).
A general note: In western blotting, separated proteins are transferred to a membrane and probed.

A further series has as its system Factor XII (FXII). Put plainly: Phase 1 SAD: ex vivo DXS-stimulated cleavage of Factor XII / generation of FXIIa, Wes immunoassay. As to conditions: 600 mg orally in capsules, up to 12 hrs post-dose. Also noted: species or system human. The source says:
(§1) DXS-stimulated cleavage of plasma prekallikrein and Factor XII (FXII) were quantified by capillary-based immunoassay on the Wes System (ProteinSimple) analogously.

Series [6] concerns HK cleavage in undiluted citrated human plasma. Briefly: Protection of HK from PKa-mediated cleavage in DXS-stimulated HAE and control plasma (WES immunoassay). Format: biochemical. As to conditions: HAE and healthy control plasma stimulated with dextran sulfate. The procedure: High molecular weight kininogen (HK) cleavage in undiluted citrated human plasma was induced by contact system activation with dextran sulfate (DXS, Sigma #31395-10G; 6.25 μg/ml) on wet ice. […] HAE plasma was obtained from HAE subjects (n=6) and C1-inhibitor deficiency was confirmed by western blotting. Protection of HK from PKa mediated cleavage in DXS-stimulated whole undiluted plasma was then determined by two methods; traditional western blotting and a semi-automated capillary-based immunoassay.
Capillary-based immunoassay on the WES System (ProteinSimple):
Preparation of samples: Combine one part 5× fluorescent master mix with four parts of the 1:200 plasma sample. Vortex to mix. Heat the samples+fluorescent master mix and the biotinylated ladder at 95° C. for 5 minutes, vortex, and load onto the WES plate. Monoclonal anti-human HK antibody was used for this chemiluminescence-based detection method using the Wes System (ProteinSimple).
Analysis: Collect the peak area measurement obtained in the Compass software (cbz file) for the full-length HK molecular weight of the respective time-point sample with DXS-induced activation. The peak area is defined as the area calculated for the spectral peak profile for HK. To measure the plasma kallikrein inhibition by the compound, the percent full-length HK detected was calculated.

In series [7] the target is T3, plasma kallikrein catalytic activity (Homo sapiens, UniProt P03952).
T3 construct: from tissue; host or cells: undiluted plasma of healthy male study participants after oral dosing, stimulated ex vivo with dextran sulfate
Put plainly: Phase 1 SAD / food effect: ex vivo PKa catalytic activity in DXS-stimulated undiluted plasma. The procedure: (§2) This study was a randomized, double-blind, placebo-controlled single ascending dose (SAD) and crossover studies for food effect and capsule/tablet formulations.
PD measurements were determined in dextran sulfate (DXS) stimulated undiluted plasma using a fluorogenic enzyme assay and capillary based HK cleavage immunoassay.
The time until appearance of detectable amidolytic enzyme activity in DXS-stimulated plasma (lag time) was calculated from the catalytic activity assay. The detection sensitivity of the rate of catalytic activity in plasma based on using a Spark (Tecan) fluorimeter is a fluorescence increase to reach 1ΔF unit/sec.

The subject of another series is HK cleavage. Briefly: Phase 1 SAD: ex vivo DXS-stimulated cleavage of HK, Wes capillary immunoassay. More on the design: species or system human. As to conditions: 600 mg orally in capsules, up to 12 hrs post-dose. On the procedure: DXS-stimulated cleavage of HK, in undiluted plasma was quantified by capillary-based immunoassay on the Wes System (ProteinSimple) using monoclonal anti-HK antibody and chemiluminescence-based detection. Plasma kallikrein mediated HK cleavage in undiluted citrated human plasma was induced by contact system activation with DXS (6.25 μg/ml) at 4° C. in selected samples from the SAD phase.

A short description of series [8]: Phase 1 multiple dose study: safety, tolerability, ECG. As to conditions: healthy adults. Format: in vivo, human. On the procedure:
This is a phase 1, double-blind, placebo-controlled, multiple-dose, multiple-cohort study to evaluate safety and tolerability of the compound as well as of the ECG effects of the compound formulated as 100 mg Film Coated Tablets in healthy adult male and female subjects.
During the study, oral doses of 600 mg of the compound as Film Coated Tablets (six 100 mg tablets) or 6 matching placebo tablets will be administered once every 8 hours (Cohort 1) every 4 hours (Cohort 2), or every 2 hours (Cohort 3 and 4) to healthy adult male and female subjects up to a total dose of 1800 mg. In Cohorts 1, 2 and 3, 6 subjects will receive the compound as 100 mg Film Coated Tablets and 2 subjects will receive the placebo for a total of 8 subjects per cohort. In Cohort 4, 12 subjects will receive the compound as 100 mg Film Coated Tablets and 6 subjects will receive the placebo for a total of 18 subjects.
A Holter monitor will be attached to each subject in order to continuously record ECGs. The monitor will be attached 1 hour before the first dose and will remain attached until after the final blood sample collection. The electrodes for the Holter monitor will be checked by a member of the clinic staff at appropriate intervals to ensure they are attached.

The next series concerns plasma prekallikrein. Put plainly: Phase 1 SAD: ex vivo DXS-stimulated cleavage of plasma prekallikrein, Wes immunoassay. More on the design: species or system human. As to conditions: 600 mg orally in capsules, up to 12 hrs post-dose.
Text: as §1

Series [9] is described as follows: Phase 1 SAD and food effect study: safety and tolerability. As to conditions: phase I trial, healthy males. Format: in vivo, human.
Text: as §2

Setting [10] is: 3 x 600 mg every 8, 4 or 2 hours.

T3 sequence (P03952 391-638 limits assumed): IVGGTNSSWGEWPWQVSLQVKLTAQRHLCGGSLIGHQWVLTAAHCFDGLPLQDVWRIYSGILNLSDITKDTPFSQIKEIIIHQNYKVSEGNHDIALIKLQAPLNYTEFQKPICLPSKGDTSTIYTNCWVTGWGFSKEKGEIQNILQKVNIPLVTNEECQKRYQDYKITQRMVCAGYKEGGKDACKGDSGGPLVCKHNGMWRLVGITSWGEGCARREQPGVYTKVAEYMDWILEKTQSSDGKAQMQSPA
T3 sequence (P03952 20-390 partner limits assumed): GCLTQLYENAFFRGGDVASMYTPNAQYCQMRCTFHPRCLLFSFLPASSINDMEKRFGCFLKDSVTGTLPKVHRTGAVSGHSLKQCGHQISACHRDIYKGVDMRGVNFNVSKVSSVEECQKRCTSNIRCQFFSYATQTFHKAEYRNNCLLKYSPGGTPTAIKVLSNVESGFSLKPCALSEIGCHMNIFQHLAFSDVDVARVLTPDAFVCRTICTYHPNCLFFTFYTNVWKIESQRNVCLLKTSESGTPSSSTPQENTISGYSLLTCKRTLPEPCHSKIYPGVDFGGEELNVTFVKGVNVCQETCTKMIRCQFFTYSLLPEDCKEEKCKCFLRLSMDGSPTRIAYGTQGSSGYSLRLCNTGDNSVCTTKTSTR
PKa in DXS-activated plasma, sequence (P03952 391-638 limits assumed): as the sequence (P03952 391-638 limits assumed) above
PKa in DXS-activated plasma, sequence (P03952 20-390 partner limits assumed): as the sequence (P03952 20-390 partner limits assumed) above
T1 sequence (P03952 391-638 limits assumed): as the sequence (P03952 391-638 limits assumed) above
T1 sequence (P03952 20-390 partner limits assumed): as the sequence (P03952 20-390 partner limits assumed) above
T2 sequence (P03952 391-638 limits assumed): as the sequence (P03952 391-638 limits assumed) above
T2 sequence (P03952 20-390 partner limits assumed): as the sequence (P03952 20-390 partner limits assumed) above
purified PKa, sequence (P03952 391-638 limits assumed): as the sequence (P03952 391-638 limits assumed) above
purified PKa, sequence (P03952 20-390 partner limits assumed): as the sequence (P03952 20-390 partner limits assumed) above

On to Ecallantide, for which, in series [1], the “reported adverse reactions / risks” value is given as “risk of anaphylactic reactions”.

As to “C1-INH: C1 inhibitor (C1-INH, Sigma Cat #E0518), comparator [Compound C1-INH]”, the IC50 worked out at 50 nM with Human plasma kallikrein and 1700 nM in series [2]. The molecule further had a Kon in the series with purified PKa of 40000 M⁻¹ s⁻¹. In [3], the “inhibition of enzyme activity after activation of plasma” value is recorded as “slower action”.

Consider `N#Cc1cccc([C@@H](NCC2CC2)c2ccc(F)c(NC(=O)c3cc(C(F)(F)F)nn3-c3cccc(CN)c3)c2)c1` [Berotralstat], for which the “reported adverse reactions / risks” value in [1] is “higher doses were associated with more gastrointestinal adverse effects”.

As to `COCc1nn(Cc2ccc(Cn3ccccc3=O)cc2)cc1C(=O)NCc1nccc(OC)c1F` [Compound of Formula A, N-[(3-fluoro-4-methoxypyridin-2-yl)methyl]-3-(methoxymethyl)-1-({4-[(2-oxopyridin-1-yl)methyl]phenyl}methyl)pyrazole-4-carboxamide], in [4] (following a dosage amount of at least about 60 mg), the plasma concentration entry is reported as “at least 500 ng/mL”. In series [4] (oral capsule, fasted, 5 mg to 600 mg), the plasma exposure result is “rapid and dose-dependent plasma exposure”. In series [5], the “HK protection (% of HK remaining vs unactivated plasma)” value stood at 85%. Further, in the series on Factor XII (FXII), the “effect on generation of FXIIa” value was “reduces the generation of FXIIa”. The “protection against HK cleavage” value in series [6] was “dose dependent protection against HK cleavage”. Also, in series [7] (600 mg dose, tablet formulation), the “lag time (time until appearance of catalytic activity during contact system activation)” value is given as “increases the time until appearance of catalytic activity”. In [7] (600 mg tablet, by 30 minutes, fed and fasted state), this molecule yielded an inhibition at 600 mg above 90%. Besides, the “detectable catalytic activity after prolonged DXS activation” value in series [7] (600 mg tablet, early time points post-dose) is listed as “did not display detectable catalytic activity”. The “food effect on pharmacodynamic (PD) profile” value in series [7] (600 mg tablet, fed and fasted state) is “no significant food-effect”. This molecule also displayed an inhibition at 160 mg in series [7] (po, cohort 6 (160 mg oral), between 45 min and 2 hr post-dose) above 90%. In [7] (po, cohort 7 (300 mg oral), between 20 min and 4 hr post-dose), this molecule showed an inhibition at 300 mg above 90%. Also, the “effect on HK cleavage” value with HK cleavage was “reduces HK cleavage”. In [8] (setting [10]), the serious adverse events result is “No serious adverse events were reported” and the “severity of reported adverse events” value is “mild”. The “effects on the studied ECG parameters” value in series [8] (3 x 600 mg) was “No clinically relevant effects”. In the series on plasma prekallikrein, the “effect on PPK cleavage” value is reported as “reduces PPK cleavage”. Besides, in series [9], the serious adverse events entry is reported as “No serious adverse events were reported” and the tolerability signals entry is given as “no tolerability signals”.

B1: lanadelumab: recombinant fully human IgG1 kappa light chain monoclonal antibody, active substance of Takhzyro® (antibody, chains of the INN, looked up, V domains shown)
VH: EVQLLESGGGLVQPGGSLRLSCAASGFTFSHYIMMWVRQAPGKGLEWVSGIYSSGGITVYADSVKGRFTISRDNSKNTLYLQMNSLRAEDTAVYYCAYRRIGVPRRDEFDIWGQGTMVTVSS
VL: DIQMTQSPSTLSASVGDRVTITCRASQSISSWLAWYQQKPGKAPKLLIYKASTLESGVPSRFSGSGSGTEFTLTISSLQPDDFATYYCQQYNTYWTFGQGTKVEIK
Consider B1, for which, in [1], the “reported adverse reactions / risks” value was “hypersensitivity, injection site pain, injection site erythema, and injection site bruising”.

The IC50 is the concentration needed to halve the response being measured. For orientation: inhibition means how much of the control response was suppressed. High values mean a strong effect, low ones a weak effect.

The record behind these values is US20220226293A1, “TREATMENTS OF ANGIOEDEMA” (KALVISTA PHARMACEUTICALS LIMITED, priority 2019, published 2022).
